The source of these data is patent US7582652B2, “Kinase inhibitors” (Eli Lilly and Company, priority 2004, dated 2009).

In one assay the target is p38 kinase enzyme (Homo sapiens, UniProt Q16539). Put plainly: Inhibition of p38 kinase. The settings on record: 33P-ATP, EGF peptide 661-681, 30° C. Format: biochemical. As to the method: Standard Solution Preparations
The kinase buffer solution is prepared by combining 2.5 mL 1 M Tris-HCl (pH 7.5), 0.1 ml 1 M dithiothreitol, 1.0 mL 1 M magnesium chloride, and 300 μL 1% Triton X-100 and diluting to 100 mL with water. 84 mL of this kinase buffer solution is combined with 16 mL DMSO to prepare the 16% DMSO solution.
The 200 μM ATP solution is prepared by adding 102.6 μL 10 mM aqueous ATP, 25 μL ^33P-ATP, and 163.5 μL of 4 mM aqueous Epidermal Growth Factor Peptide 661-681 (Biomol, Catalog #P-121) in 5 mL kinase buffer solution.
The p38 kinase enzyme solution is prepared by dissolving 9.5 μL concentrated enzyme solution (250 ng p38 enzyme/μL kinase buffer solution) in 1536 μL kinase buffer solution.
An 80 μM solution of each test compound and control compound are prepared by dissolving 2 μL of a 10 mM stock solution of the respective compounds in dimethylsulfoxide in 248 μL of the 16% DMSO solution in a Costar 96-well microtiter plate. The plate is placed onto the Tecan Genesis automated liquid handler for 1:3 serial dilutions.
10 μL of serially diluted compound is placed with a Beckmnan Multimek 96-well automated liquid handler to the assay plate. […] of 200 μM ATP solution is added with a Titertek Multidrop 8-channel liquid handler. 10 μL of p38 kinase enzyme solution is transferred to the assay plate using the Multimek. The mixture is allowed to react for […] and then the reaction is stopped by adding 60 μL of freshly prepared 5% glacial AcOH with Multidrop. 80 μL of this solution is transferred to an “MAPH” plate using the Multimek. The plates are allowed to set for 30 min at RT and then washed/aspirated on the Titertek MAP extractor with freshly prepared 0.5% glacial AcOH (1×300 μL, 2×200 μL). The wells are blotted and 100 μL MicroScint-20 scintillation fluid (Packard Bioscience) is added with the Multidrop. The plates are allowed to sit for 30 min and counted on a PE/Wallac Microbeta Trilux scintillation counter for ^33P-isotope.
All exemplified compounds were initially tested at 10 concentrations (20 μM−1 nM using 1:3 serial dilutions). […] IC50 values were calculated (IDBS ActivityBase software) for each compound using non-linear regression.

In assay [1] the test system is TNF-α production in mouse peritoneal macrophages. In words: Inhibition of TNF-α in vitro (mouse peritoneal macrophages, LPS/interferon-γ, Luminex). The settings on record: Mus musculus, Peritoneal macrophage; suppression of TNF-α; macrophages treated with 50 ng/mL LPS and 10 U/mL interferon-γ for 18 h. The format is cell-based. As to the method:
Mouse Peritoneal Macrophages
1 mL thioglycolate broth (5.0 g yeast extract, 15.0 g casitone or trypticase, 5.0 g dextrose, 2.5 g sodium chloride, 0.75 g L-cystine, 0.5 g sodium thioglycolate, 1.0 mg resazurin, and 0.75 g agar in 1.0 L distilled water) is injected into the peritoneal cavity of Balb/C female mice. At day 4 or 5 post-injection the mice are sacrificed and then injected i.p. with 4 mL RPMI-1640 medium (BioWhittaker) and the peritoneal macrophages are withdrawn by syringe.
Mouse peritoneal microphages are counted with a hemocytometer and adjusted to 5×10^5 cells/well in 96-well plates in RPMI-1640 medium with 10% fetal bovine serum. 200 μL/well is plated in 96-well plates and the cells allowed to settle and adhere to the bottom of the well for at least 3 h. The test compound or standard p38 kinase inhibitor is pre-treated using a series of 8 concentrations for 1 h at 37° C. (20 μL/well). The cells are treated with a mixture of 50 ng/mL lipopolysaccharide (LPS) and 10 U/mL interferon-γ for 18 h at 37° C. (20 μL/well). The conditioned media is harvested and assayed for TNF-α production using the Luminex procedure.
TNF-α/Luminex Detection Assay (Bio-Rad Bio-Plex Kit—Catalog #171-G12221)
The lyophilized premixed TNF-α standard (1 standard tube/two 96-well plates) is reconstituted with 50 μL sterile water (500,000 pg/mL). The samples are vortexed for 5 seconds, incubated on ice for 30 min, and vortexed for 5 seconds before use. A set of twelve 1.5 mL tubes are labeled with #1-thru #12 and then the amounts of cell media shown below added to the appropriate tubes (standard concentrations are as follows: 50,000; 25,000; 12,500; 6,250; 3,125; 1,562.5; 781.3; 390.6; 195.3; 97.7; 48.8; and 24.4 pg/mL). The premixed anti-cytokine conjugated beads are vortexed (25×) vigorously for 30 seconds. The anti-cytokine conjugated beads are diluted to a 1× concentration using 1× Bio-Plex Assay Buffer. For every plate, 240 μL of the pre-mixed beads is added to 5760 μL of Bio-Plex Assay Buffer. A Millipore 96-well filter plate is blocked with 100 μL/well of blocking buffer. The blocking buffer is filtered through using a Millipore filtration system and then toweled dry. 2 washes are performed on the filter plate with 100 μL/well of Bio-Plex Assay Buffer and toweled dry. The 1× anti-cytokine conjugated beads are vortexed for 15 seconds and added 50 μL to each well. This is filtered through and toweled dry. 2 washes are performed on plates with 100 μl/well of Bio-Plex Wash Buffer. Again, it is filtered through and toweled dry. 50 μL of sample or standard is added to each sample well. This is incubated for 60 seconds at RT on a shaker protected from light at setting 6 and then for 30 min at setting 3 and then placed in the refrigerator overnight. 3 washes are performed with Bio-Plex Wash Buffer. Filter through and toweled dry. The cytokine detection antibody is prepared (˜10 min prior to use) for every plate and 60 μL of the premixed cytokine detection antibody stock is added to 5940 μL of Bio-Plex Detection Antibody Diluent. 50 μL of cytokine detection antibody is added and incubated for 60 seconds at RT on a shaker protected from light at setting 6 and then for 30 min at setting 3.3 washes are performed with the Bio-Plex Wash Buffer. This is filtered through and toweled dry. Strept-PE (˜10 minutes prior to use) is prepared for every plate and 60 μL to 5940 μL of Bio-Plex Assay Buffer added. 50 μL of Streptavidin-PE is added to each well and incubated for 60 seconds at RT on a shaker protected from light at setting 6 and then for 10 min at setting 3. 3 washes are performed with Bio-Plex Wash-Buffer. This is filtered through. The beads are re-suspended in 100 μL/well of Bio-Plex Assay Buffer. Standards and samples are read on a Luminex machine. […]

Molecules are shown by their SMILES.

p38 kinase enzyme, sequence (Q16539 whole entry): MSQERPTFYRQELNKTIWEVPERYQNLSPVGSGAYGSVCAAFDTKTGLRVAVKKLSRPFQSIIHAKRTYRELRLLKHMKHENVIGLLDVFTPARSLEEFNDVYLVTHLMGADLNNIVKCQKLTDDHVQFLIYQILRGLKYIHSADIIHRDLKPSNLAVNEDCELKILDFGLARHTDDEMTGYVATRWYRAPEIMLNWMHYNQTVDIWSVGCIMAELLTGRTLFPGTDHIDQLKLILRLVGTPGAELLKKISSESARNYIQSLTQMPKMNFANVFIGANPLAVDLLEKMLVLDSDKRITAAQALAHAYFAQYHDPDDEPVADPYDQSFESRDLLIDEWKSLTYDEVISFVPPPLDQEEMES

For `CC(C)(C)Cn1c(N)nc2ccc(-c3[nH]c(-c4c(F)cccc4C(F)(F)F)nc3-c3ccccc3)nc21` [EXAMPLE 6, 3-(2,2-Dimethylpropyl)-5-[2-(2-fluoro-6-trifluoromethylphenyl)-5-phenyl-3H-imidazol-4-yl]-3H-imidazo[4,5-b]pyridin-2-ylamine methanesulfonate], the results for the IC50 (against p38 kinase enzyme; in assay [1]) were 7.2 nM and below 9.1 nM, respectively.

`CC(C)(C)Cn1c(N)nc2ccc(-c3[nH]c(C(C)(C)C)nc3-c3ccc(F)cc3)nc21` [EXAMPLE 9, 5-[2-tert-Butyl-5-(4-fluorophenyl)-3H-imidazol-4-yl]-3-(2,2-dimethylpropyl)-3H-imidazo[4,5-b]pyridin-2-ylamine methanesulfonate] had an IC50 in assay [1] of 1.2 nM. For `CC(C)(C)Cn1c(N)nc2ccc(-c3[nH]c(C(C)(C)C)nc3-c3ccc(F)cc3F)nc21` [EXAMPLE 11, 5-[2-tert-Butyl-5-(2,4-difluorophenyl)-3H-imidazol-4-yl]-3-(2,2-dimethylpropyl)-3H-imidazo[4,5-b]pyridin-2-ylamine methanesulfonate], it took 2.4 nM to reach half-maximal inhibition in assay [1] (IC50).

Take `C[C@@H](n1c(N)nc2ccc(-c3[nH]c(C(C)(C)C)nc3-c3ccc(F)cc3)nc21)C(C)(C)C` [compound 12, R-5-[2-tert-Butyl-5-(4-fluorophenyl)-3H-imidazol-4-yl]-3-(1,2,2-trimethylpropyl)-3H-imidazo[4,5-b]pyridin-2-ylamine methanesulfonate]: the IC50 on p38 kinase enzyme turned out to be 3.6 nM. This counts as single-digit nanomolar. On to `C[C@@H](n1c(N)nc2ccc(-c3[nH]c(-c4c(F)cccc4F)nc3-c3ccc(F)cc3)nc21)C(C)(C)C` [compound 13, R-5-[2-(2,6-Difluorophenyl)-5-(4-fluorophenyl)-3H-imidazol-4-yl]-3-(1,2,2-trimethylpropyl)-3H-imidazo[4,5-b]pyridin-2-ylamine methanesulfonate], for which the values for the IC50 (on p38 kinase enzyme; in assay [1]) were 3.3 nM and below 9.1 nM, respectively. Take `CC(C)(C)Cn1c(N)nc2ccc(-c3[nH]c(-c4c(F)cccc4Cl)nc3-c3ccccc3)nc21` [compound 18, 5-[2-(2-Chloro-6-fluorophenyl)-5-phenyl-3H-imidazol-4-yl]-3-(2,2-dimethylpropyl)-3H-imidazo[4,5-b]pyridin-2-ylamine methanesulfonate]: the IC50 at p38 kinase enzyme is 3.6 nM; in assay [1] it was below 9.1 nM. The matching figures for `Nc1nc2ccc(-c3[nH]c(-c4c(F)cccc4F)nc3-c3ccccc3)nc2n1CC1CC1` [compound 19, 3-Cyclopropylmethyl-5-[2-(2,6-difluorophenyl)-5-phenyl-3H-imidazol-4-yl]-3H-imidazo[4,5-b]pyridin-2-ylamine methanesulfonate]: 3.2 nM and below 9.1 nM.

For orientation: IC50 means the concentration that inhibits the measured activity by half. Higher therefore signals lower potency.
